From US20050033056A1, “Hydroxylated indole derivatives and uses thereof” (priority 2001, published 2005)

Legend:
CYP2C19 = CYP2C19 (Homo sapiens, UniProt P33261); assay: Compound 1 metabolism / metabolite formation by recombinant CYP2C19; assay type: in vitro ADME; design: purchased Gentest Corp. (Woburn, Mass.); host or cells: insect cells (microsomal preparation)
Experimental: (§1) The metabolism of Compound 1 was determined by the disappearance of Compound 1 or the appearance of Compound 1 metabolites in reaction mixtures as compared to respective controls. Compound 1 was incubated in the reconstituted in vitro reaction systems containing pooled human liver S9 fractions, microsomal preparations, or recombinant hepatic CYP forms, including CYP1A2, CYP2C9, CYP2C19, CYP2D6, CYP2E1, and CYP3A4. The reaction mixture (total volume of 250 μL) contained 0.5 mg of liver microsomal protein, 50 or 25 pmol of recombinant CYP, and Compound 1 (50-80 μM) in 50 mM Tris buffer containing 15 mM MgCl2 (pH 7.4). After incubating at 37° C. with gentle shaking for 1 minute, the reaction was initiated by adding 25 μL of NADPH solution (20 mg/mL), and was carried out for 1 hour. The reaction was terminated by quickly cooling the test tube on ice, followed by the addition of an equal volume of 100% methanol. The samples were centrifuged in a desktop centrifuge at 14,000 rpm for 5 minutes, and the supernatants were filtered through syringe filters (13 mm, 0.45 μm). The filtrates were subjected to analysis using LC/MS (ion trap) or LC/MS/MS.
(§2) 1. LC/MS (LCQ ion trap mass spectrometer, Finnigan Corp., San Jose, Calif.): Hewlett Packard 1100 HPLC system (Waldbronn, Germany) consisted of a binary pump, an autosampler, a column compartment unit, and an online variable wavelength UV detector (VWD). The detector was monitored at 270 nm, which is the UVmax of Compound 1 predetermined by scanning between 225-400 nm using a photodiode array detector (PDA). The metabolites were separated on a Hewlett Packard Eclipse C18 column (150×2.1 mm). The mobile phases were 10 nmM ammonium acetate at pH 4.8 (A) and acetonitrile (B). The gradient (B) was 10% (0-6 minutes), 22% (12-22 minutes), 90% (25-30 minutes), and 10% (31 minutes and after). The flow rate was 0.25 mL/minute. Software Navigator (Version 1.2, Finnigan Corp.) was used to control the HPLC and MS and to acquire the data. The MS was operated at positive electrospray ionization (ESI) with 5.2 kV ionization potential and 220° C. heated capillary temperature. The product ion spectra were generated under 24V collision energy, which was optimized for the fragmentation of Compound 1.
2. LC/MS/MS (SCIEX API2000 triple quadrupole mass spectrometer, PE Biosystem, Foster City, Calif.): The same HPLC system described above was coupled with a tandem mass spectrometer. The metabolites were separated on a Sulpelco Discovery C18 column (150×2.1 mm), and the mobile phase described previously was run at 1.0 mL/min with a 1:10 split. The gradient (B) was 20% (0-6 minutes), 60% (14-18 minutes), 95% (20-24 minutes), and 20% (25 minutes and after). The operation of the HPLC and the MS/MS was controlled by MacChrom (Version 1.6, PE Biosystem). […]

CYP3A4 = CYP3A4 (Homo sapiens, UniProt P08684); assay: Compound 1 metabolism / metabolite formation by recombinant CYP3A4; assay type: in vitro ADME; design: purchased Gentest Corp. (Woburn, Mass.); host or cells: insect cells (microsomal preparation); conditions: recombinant CYP3A4; estimated by UV absorbance at 270 nm; metabolite formed or Compound 1 left after 1 hour with NADPH
CYP3A4, sequence (P08684 whole entry): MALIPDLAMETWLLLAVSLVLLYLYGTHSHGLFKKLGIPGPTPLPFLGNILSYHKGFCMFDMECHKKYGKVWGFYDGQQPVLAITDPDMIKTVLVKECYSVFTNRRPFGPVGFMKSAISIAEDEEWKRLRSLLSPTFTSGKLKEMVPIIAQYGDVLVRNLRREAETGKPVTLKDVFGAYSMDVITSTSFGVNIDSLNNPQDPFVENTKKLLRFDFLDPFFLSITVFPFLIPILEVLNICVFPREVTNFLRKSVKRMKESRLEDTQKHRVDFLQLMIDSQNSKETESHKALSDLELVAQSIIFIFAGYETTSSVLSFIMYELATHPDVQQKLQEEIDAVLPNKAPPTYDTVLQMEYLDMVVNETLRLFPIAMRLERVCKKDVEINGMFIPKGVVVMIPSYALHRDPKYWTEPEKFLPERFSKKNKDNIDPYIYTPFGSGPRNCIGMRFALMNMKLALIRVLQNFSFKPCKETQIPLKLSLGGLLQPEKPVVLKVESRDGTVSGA
Experimental: as §1
as §2, with “The MS was operated at positive electrospray ionization (ESI) with 5.2 kV ionization potential and 220° C. heated capillary temperature. The product ion spectra were generated under 24V collision energy, which was optimized for the fragmentation of Compound 1.” left out

CYP2D6 = CYP2D6 (Homo sapiens, UniProt P10635); assay: Compound 1 metabolism / metabolite formation by recombinant CYP2D6; assay type: in vitro ADME; design: purchased Gentest Corp. (Woburn, Mass.); host or cells: insect cells (microsomal preparation); conditions: recombinant CYP2D6, NADPH
CYP2D6, sequence (P10635 whole entry): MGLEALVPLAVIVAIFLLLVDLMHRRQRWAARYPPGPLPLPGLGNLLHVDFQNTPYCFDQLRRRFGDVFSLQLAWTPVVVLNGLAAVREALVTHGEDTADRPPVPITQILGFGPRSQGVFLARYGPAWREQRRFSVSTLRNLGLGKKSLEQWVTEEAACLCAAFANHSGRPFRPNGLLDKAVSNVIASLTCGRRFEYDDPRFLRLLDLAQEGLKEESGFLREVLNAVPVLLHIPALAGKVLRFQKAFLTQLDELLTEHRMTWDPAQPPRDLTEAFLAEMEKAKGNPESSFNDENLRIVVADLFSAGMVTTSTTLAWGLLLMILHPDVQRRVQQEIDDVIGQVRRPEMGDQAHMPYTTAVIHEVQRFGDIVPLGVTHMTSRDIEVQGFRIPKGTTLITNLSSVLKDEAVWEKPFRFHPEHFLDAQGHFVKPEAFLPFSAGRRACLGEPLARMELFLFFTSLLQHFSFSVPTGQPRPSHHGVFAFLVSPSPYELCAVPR
Experimental: as §1
as §2, with “The MS was operated at positive electrospray ionization (ESI) with 5.2 kV ionization potential and 220° C. heated capillary temperature. The product ion spectra were generated under 24V collision energy, which was optimized for the fragmentation of Compound 1.” left out

[1] = test system: pooled human liver microsomal preparations (HLM); assay: Compound 1 metabolism / metabolite formation in reconstituted system with pooled HLM; assay type: in vitro ADME; conditions: estimated by UV absorbance at 270 nm, metabolite formed or Compound 1 left after 1 hour with NADPH
Experimental: as §1
1. […] The detector was monitored at 270 nm, which is the UVmax of Compound 1 predetermined by scanning between 225-400 nm using a photodiode array detector (PDA). […]

CYP1A1/2 = assay: CYP induction in primary human hepatocytes, Western immunoblotting: CYP1A1/2; assay type: cell-based; conditions: TCDD 0.4 μM, 72 hours
Experimental: Upon receiving a primary culture of human hepatocytes in 6-well plates, the culture medium containing streptomycin/penicillin was refreshed (2 ml/well). […] Compound 1 stock solution was added to the culture medium at a 1:400 ratio (v/v). The culture medium and testing compounds were replenished every 24 hours.
At the end of the treatment, the cells were harvested into 1 mL of phosphate-buffered saline (PBS) after washing twice. The cells were precipitated by centrifugation, and were resuspended in PBS (approximately 50 μL). The sample preparation, after mixing with […] of Laemmli buffer (62.5 mM Tris-HCl containing 2% SDS, 25% glycerol, and 0.01% bromophenol, pH 6.8) and being rocked for 2-4 hours, was mixed with 10 μL of 2-mercaptoethanol, and heated at 90° C. for 10 minutes before electrophoresis.
Proteins were resolved in a 12% SDS-PAGE gel using a mini gel apparatus at a constant voltage ([…]) for 70-80 minutes, and transferred onto a polyvinylidene difluoride (PVDF) membrane using a membrane-transferring unit at a constant voltage ([…]) for 60 minutes. The membrane was blocked by 5% non-fat dried milk (NFDM) blotting buffer (PBS containing 0.05% Tween 20) at 4° C. overnight. […] CYP proteins were detected by […] using an X-ray developer.

CYP2C19, sequence (P33261 whole entry): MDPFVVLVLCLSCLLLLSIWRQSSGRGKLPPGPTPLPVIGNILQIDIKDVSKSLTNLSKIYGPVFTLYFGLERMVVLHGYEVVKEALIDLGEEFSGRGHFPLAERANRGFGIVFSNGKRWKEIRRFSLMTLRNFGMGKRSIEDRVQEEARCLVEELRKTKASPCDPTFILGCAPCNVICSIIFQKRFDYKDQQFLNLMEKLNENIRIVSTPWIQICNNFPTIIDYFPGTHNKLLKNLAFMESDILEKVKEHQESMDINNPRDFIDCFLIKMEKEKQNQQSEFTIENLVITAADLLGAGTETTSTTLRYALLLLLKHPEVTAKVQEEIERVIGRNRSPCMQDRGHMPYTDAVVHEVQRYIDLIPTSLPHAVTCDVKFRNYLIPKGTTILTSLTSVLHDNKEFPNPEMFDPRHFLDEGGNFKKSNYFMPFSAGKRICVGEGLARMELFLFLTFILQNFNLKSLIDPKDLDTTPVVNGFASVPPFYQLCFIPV

Row | SMILES | formation of the metabolite from Compound 1 by CYP2C19 (in words) (CYP2C19; recombinant CYP2C19, NADPH) | Rel. Amount (%) (CYP2C19; recombinant CYP2C19, estimated by UV absorbance at 270 nm, metabolite formed or Compound 1 left after 1 hour with NADPH) | Rel. Amount (%) (CYP3A4) | formation of the metabolite from Compound 1 by CYP2D6 (in words) (CYP2D6) | Rel. Amount (%) [1] | expression of CYP1A1/2 (Western immunoblotting), positive control (CYP1A1/2)
1 | CNC(=O)Cc1ccc2ccn(C3CCNCC3)c2c1 [Compound M4] | formed | 20% | 31% | formed | 21% | –
2 | Clc1cc2c(cc1Cl)Oc1cc(Cl)c(Cl)cc1O2 [TCDD, 2,3,7,8-tetrachlorodibenzo-p-dioxin, reference compound] | – | – | – | – | – | elevated expressions
